Results reported in article PMC3704224 (Analytical chemistry, 2013).

Tests used:
PTPN1 = settings: read-out: IC50, PTPN1 inhibition (previous reports); cited from earlier work
PTPN2 = settings: read-out: KM for PTPN2; cited from earlier work
[1] = test system: PTP activity in single A431 cells; assay: Single A431 cell PTP activity; format: cell-based, human; settings: single A431 cells pretreated with 1 mM; Q1 = 36%, Q3 = 77%

For `O=C1C=Cc2ccccc2C1=O` [1,2-naphthoquinone], the IC50 (PTPN1) is listed as 1600 to 5000 nM.

In the case of `N[C@@H](Cc1ccc(OP(=O)(O)O)cc1)C(=O)O` [phosphotyrosine], the Km (PTPN2) is listed as 300 µM.

In the case of sodium pervanadate, the “median phosphorylation remaining in 60 s (inhibition of dephosphorylation)” value [1] is listed as 53% and the IC50 (PTPN1) is listed as 400 nM.
